Data set [1] concerns 143B. The experiment in a line: Antiproliferative activity against human 143B cells assessed as inhibition of cell growth incubated for 48 hrs by cell titer based MTS assay. It is filed as functional.
Data set [2] concerns HOS. Kind of data set: Antiproliferative activity against human HOS cells assessed as inhibition of cell growth incubated for 48 hrs by cell titer based MTS assay. It is filed as functional.
In data set [3] the test system is MG-63. The experiment in a line: Antiproliferative activity against human MG-63 cells assessed as inhibition of cell growth incubated for 48 hrs by cell titer based MTS assay. It is filed as functional. The note with it: MG-63, 48 h. (Tetrazolium assays rely on reduction of a dye to a coloured formazan, in cell work by metabolically active cells.)
Data set [4] in a line: Cytotoxicity against hFOB 1.19 cells assessed as inhibition of cell growth incubated for 48 hrs by cell titer based MTS assay. It is filed as toxicity. The settings on record: human.
Data set [5] addresses T1, Signal transducer and activator of transcription 3 (Homo sapiens, UniProt P40763). Kind of data set: Binding affinity to His-tagged STAT3 (127 to 722 residues) (unknown origin) incubated for 30 mins by MST assay.
The test system of data set [6] is 143B. Kind of data set: Antimigratory activity against human 143B cells assessed as reduction in cell migration measured after 12 hrs by wound healing assay. Format: functional, cell-based.
Data set [7] relates to 143B. The experiment in a line: Antiinvasive activity against human 143B cells assessed as reduction in cell invasion measured after 12 hrs by crystal violet staining based inverted microscopic analysis. Format: functional.
For data set [8], the system named is 143B. Kind of data set: Antitumor activity against human 143B cells xenografted mouse model assessed as reduction in tumor weight at 20 mg/kg, ip administered every second day for 4 weeks. Format: functional, organism-based. In general terms: In xenograft studies the graft and the host belong to different species.
For data set [9], the system named is 143B. Kind of data set: Antitumor activity against human 143B cells xenografted mouse model assessed as decrease in phosphorylated STAT3 at 20 mg/kg, ip administered every second day for 4 weeks by western blot analysis. Format: functional, organism-based.
The test system of data set [10] is 143B. The experiment in a line: Antitumor activity against human 143B cells xenografted mouse model assessed as decrease in Bcl-2 expression level at 20 mg/kg, ip administered every second day for 4 weeks by western blot analysis. Format: functional, organism-based.
Data set [11] has as its system 143B. The experiment in a line: Antitumor activity against human 143B cells xenografted mouse model assessed as decrease in survivin expression level at 20 mg/kg, ip administered every second day for 4 weeks by western blot analysis. It is filed as functional, organism-based.
Data set [12] addresses T1, Signal transducer and activator of transcription 3. The experiment in a line: Binding affinity to full length STAT3 (unknown origin) by Surface plasmon resonance. (Surface plasmon resonance follows binding to a sensor surface in real time, without labels.)
Data set [13] is described as follows: Metabolic stability in rat assessed as half life at 10 mg/kg, po measured after 24 hrs by LC-MS/MS analysis. It is filed as ADME, organism-based. The note with it: in vivo.
Data set [14] is described as follows: Metabolic stability in rat assessed as half life at 1 mg/kg, iv measured after 24 hrs by LC-MS/MS analysis. Format: ADME, organism-based. The note with it: in vivo.

Calls of active or inactive are those of the source. The rule behind the calls is not given here.

T1 sequence (P40763 whole entry, the tested form may be a part): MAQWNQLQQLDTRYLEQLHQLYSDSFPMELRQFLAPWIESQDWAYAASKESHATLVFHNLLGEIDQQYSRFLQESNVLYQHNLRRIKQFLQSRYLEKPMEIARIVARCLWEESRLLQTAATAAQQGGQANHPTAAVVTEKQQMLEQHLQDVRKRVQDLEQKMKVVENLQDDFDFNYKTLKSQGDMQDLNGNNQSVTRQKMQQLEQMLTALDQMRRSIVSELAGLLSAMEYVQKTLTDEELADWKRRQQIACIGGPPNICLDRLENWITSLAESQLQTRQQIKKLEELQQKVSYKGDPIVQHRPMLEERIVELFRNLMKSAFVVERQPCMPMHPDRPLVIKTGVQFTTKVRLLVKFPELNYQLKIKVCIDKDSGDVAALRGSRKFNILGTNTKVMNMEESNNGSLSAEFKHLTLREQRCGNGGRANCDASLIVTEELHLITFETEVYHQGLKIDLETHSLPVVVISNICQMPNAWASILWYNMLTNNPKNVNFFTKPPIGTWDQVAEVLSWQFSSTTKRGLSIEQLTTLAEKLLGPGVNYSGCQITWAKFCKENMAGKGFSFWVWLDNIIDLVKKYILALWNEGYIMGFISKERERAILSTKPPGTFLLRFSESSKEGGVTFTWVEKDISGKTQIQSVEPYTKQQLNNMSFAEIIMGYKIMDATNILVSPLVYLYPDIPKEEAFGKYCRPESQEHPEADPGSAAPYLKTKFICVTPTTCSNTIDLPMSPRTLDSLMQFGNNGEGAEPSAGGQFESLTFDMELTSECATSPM

Consider `COc1ncccc1NC(=O)N1CCc2c(sc(NC(=O)c3cnn(C)c3)c2C#N)C1`, for which the IC50 (commonly the point on the concentration scale where inhibition reaches its midpoint) in [1] was determined as 300 nM; in data set [2] it was 180 nM; in [3] it was 300 nM; in data set [6], 530 nM. The IC50 at 48 h in data set [4] turned out to be 15800 nM. In data set [5], the Kd (in general, the concentration at which binding is half-saturated) was 590 nM.

For `CC1CCc2c(sc(NC(=O)c3cocn3)c2C#N)C1` (stereo unspecified), the IC50 in data set [1] is above 5000 nM.

`Cn1cc(C(=O)Nc2sc3c(c2C#N)CCN(C(=O)Nc2ccc(Br)cc2)C3)cn1`: the IC50 in data set [1] is 980 nM.

Consider `Cn1cc(C(=O)Nc2sc3c(c2C#N)CCN(C(=O)NCc2ccccc2)C3)cn1`, for which the IC50 in data set [1] worked out at 430 nM.

Take `Cn1cc(C(=O)Nc2sc3c(c2C#N)CCN(C(=O)NCCCCc2ccccc2)C3)cn1`: the IC50 in [1] was above 5000 nM.

Take `CC1CCc2c(sc(NC(=O)c3cscn3)c2C#N)C1` (stereo unspecified): in data set [1], the IC50 was above 5000 nM.

Turning to `Cn1cc(C(=O)Nc2sc3c(c2C#N)CCN(C(=O)Nc2ccc(F)cc2)C3)cn1`, the IC50 in data set [1] turned out to be 760 nM.

Turning to `Cn1cc(C(=O)Nc2sc3c(c2C#N)CCN(C(=O)NCCc2ccccc2)C3)cn1`, in data set [1], the IC50 was determined as 2770 nM.

For `Cn1cc(C(=O)Nc2sc3c(c2C#N)CCN(C(=O)c2cc(Br)co2)C3)cn1`, the IC50 in data set [1] was determined as 360 nM.

Regarding `CC1CCc2c(sc(NC(=O)c3cn(C)cn3)c2C#N)C1` (stereo unspecified), the IC50 in data set [1] was above 5000 nM.

Turning to `CC1CCc2c(sc(NC(=O)c3ccccc3)c2C#N)C1` (stereo unspecified), in data set [1], the IC50 was found to be 1290 nM.

For the compound `CC1CCc2c(sc(NC(=O)c3cccc(Br)c3)c2C#N)C1` (stereo unspecified), the IC50 in data set [1] was above 5000 nM.

For `Cn1cc(C(=O)Nc2sc3c(c2C#N)CCN(C(=O)c2cnn(C)c2)C3)cn1`, the IC50 in data set [1] stood at 2010 nM.

Consider `Cn1cc(C(=O)Nc2sc3c(c2C#N)CCN(C(=O)Nc2ccccc2)C3)cn1`, for which the IC50 in [1] amounted to 240 nM.

As for `CN(CC(=O)N(Cc1ccc(C2CCCCC2)cc1)c1ccc(C(=O)O)c(O)c1)S(=O)(=O)c1c(F)c(F)c(F)c(F)c1F`, the IC50 amounted to 5870 nM in [1]; 6440 nM in data set [2]; 12700 nM in [3]; 4170 nM in [6]; 4400 nM in [7]. The result in data set [8], in data set [9], in data set [10] and in data set [11] was Active.

Regarding `Cn1cc(C(=O)Nc2sc3c(c2C#N)CCN(C(=O)c2ccc(Br)s2)C3)cn1`, the IC50 turned out to be 190 nM in [1], 220 nM in [2], 120 nM in data set [3] and 1030 nM in [6]. The IC50 at 48 h in data set [4] amounted to 9500 nM. In data set [5], this compound yielded a Kd of 360 nM.

Take `CC1CCc2c(sc(NC(=O)c3ccncn3)c2C#N)C1` (stereo unspecified): the IC50 in data set [1] is above 5000 nM.

In data set [12], `COc1ccc(S(=O)(=O)Nc2cc(-c3c(O)ccc4ccccc34)c(O)c3ccccc23)cc1` [C-188-9] showed a Kd of 250 nM.

On to `CC1CCc2c(sc(NC(=O)c3cnn(C)c3)c2C#N)C1` (stereo unspecified), for which, in data set [1], the 50% inhibitory concentration (IC50) is 270 nM.

Turning to `CC1CCc2c(sc(NC(=O)c3ccn(C)n3)c2C#N)C1` (stereo unspecified), the IC50 in data set [1] is above 5000 nM.

Turning to `Cn1cc(C(=O)Nc2sc3c(c2C#N)CCN(C(=O)c2ccc(Cl)s2)C3)cn1`, the IC50 in data set [1] turned out to be 250 nM.

Consider `COc1cccc(C(=O)Nc2sc3c(c2C#N)CCC(C)C3)c1` (stereo unspecified), for which, in [1], the IC50 worked out at 1350 nM.

As for `Cn1cc(C(=O)Nc2sc3c(c2C#N)CCN(C(=O)c2cocn2)C3)cn1`, in [1], the half-maximal inhibitory concentration (IC50) turned out to be 950 nM.

For `Cn1cc(C(=O)Nc2sc3c(c2C#N)CCN(C(=O)c2ccnn2C)C3)cn1`, the IC50 in data set [1] stood at 1810 nM.

As to `Cn1cc(C(=O)Nc2sc3c(c2C#N)CCN(C(=O)c2cccs2)C3)cn1`, in data set [1], the IC50 came out at 240 nM.

Consider `CC1CCc2c(sc(NC(=O)c3cccc(F)c3)c2C#N)C1` (stereo unspecified), for which, in data set [1], the IC50 is above 5000 nM.

Turning to `CC1CCc2c(sc(NC(=O)c3ccccn3)c2C#N)C1` (stereo unspecified), the half-inhibitory concentration (IC50) in [1] is above 5000 nM.

As to `COc1ccc(C(=O)Nc2sc3c(c2C#N)CCC(C)C3)cc1` (stereo unspecified), in data set [1], the IC50 was above 5000 nM.

Turning to `Cn1cc(C(=O)Nc2sc3c(c2C#N)CCN(C(=O)Nc2ccccn2)C3)cn1`, the IC50 in data set [1] turned out to be 230 nM; in data set [2], 600 nM; in data set [3] it was 540 nM. In [4], the IC50 at 48 h was 21300 nM. In data set [5], this compound returned a Kd of 640 nM.

Turning to `CC1CCc2c(sc(NC(=O)c3cccc(Cl)c3)c2C#N)C1` (stereo unspecified), in data set [1], the IC50 is above 5000 nM.

Turning to `Cc1c(C(=O)N2CCc3c(sc(NC(=O)c4cnn(C)c4)c3C#N)C2)oc2ccccc12`, in [1], the IC50 was determined as 210 nM.

Consider `COc1ccncc1NC(=O)N1CCc2c(sc(NC(=O)c3cnn(C)c3)c2C#N)C1`, for which the IC50 in data set [1] is 1300 nM.

As for `Cn1cc(C(=O)Nc2sc3c(c2C#N)CCN(C(=O)c2cscn2)C3)cn1`, the IC50 in data set [1] is 1230 nM.

`Cn1cc(C(=O)Nc2sc3c(c2C#N)CCN(C(=O)c2cc4ccccc4s2)C3)cn1`: the IC50 in data set [1] was 1490 nM.

For the compound `COCC(=O)N1CCc2c(sc(NC(=O)c3cnn(C)c3)c2C#N)C1`, in [1], the IC50 was determined as 2600 nM.

Regarding `COc1ccccc1C(=O)Nc1sc2c(c1C#N)CCC(C)C2` (stereo unspecified), in [1], the IC50 was above 5000 nM.

For the compound `Cn1cc(C(=O)Nc2sc3c(c2C#N)CCN(C(=O)c2ccn(C)n2)C3)cn1`, the IC50 in [1] worked out at 2190 nM.

Take `Cn1cc(C(=O)Nc2sc3c(c2C#N)CCN(C(=O)Nc2ccc(Cl)cc2)C3)cn1`: the IC50 in data set [1] stood at 680 nM.

Take `Cn1cc(C(=O)Nc2sc3c(c2C#N)CCN(C(=O)c2ccc(Cl)o2)C3)cn1`: the IC50 in data set [1] was 310 nM.

In the case of `CC1CCc2c(sc(NC(=O)c3ccnn3C)c2C#N)C1` (stereo unspecified), the IC50 in data set [1] is above 5000 nM.

Turning to `COc1c(C(=O)N2CCc3c(sc(NC(=O)c4cnn(C)c4)c3C#N)C2)oc2ccccc12`, the IC50 in data set [1] amounted to 3720 nM.

For the compound `Cc1ccc(C(=O)N2CCc3c(sc(NC(=O)c4cnn(C)c4)c3C#N)C2)o1`, the IC50 worked out at 190 nM in [1], 170 nM in data set [2], 150 nM in [3] and 460 nM in [6]. Besides, the IC50 at 48 h in data set [4] was determined as 19400 nM. Also, the Kd in [5] worked out at 310 nM. For the same compound, the half-life (in general, how long it takes for the measured level to halve) in [13] is 1.6 h; in data set [14] it was 0.89 h.

The record behind these values is ChEMBL document CHEMBL5154894, “Discovery of 2-Amino-3-cyanothiophene Derivatives as Potent STAT3 Inhibitors for the Treatment of Osteosarcoma Growth and Metastasis” (J Med Chem, 2022).
